Values quoted from earlier work in patent US20090291958A1, “Substituted PDE5 inhibitors” (Auspex Pharmaceuticals, Inc., priority 2006, published 2009).

Key:
[1] = in vivo
[2] = in vivo; remark: listed apart in the source
PDE6 = conditions: share of patients; attributed to PDE6 modulation
PDE5 versus PDE6 = conditions: compared with sildenafil and vardenafil

## CN1CC(=O)N2[C@H](c3ccc4c(c3)OCO4)c3[nH]c4ccccc4c3C[C@@H]2C1=O [tadalafil, Tadalafil]
[1]
  exercise tolerance: improve exercise tolerance
  rate of myocardial infarction: lower rate of myocardial infarction than placebo
[2]
  half-life: 17.5 h
PDE6
  patients with side effects of chromatopsia, increased sensitivity to light, and blurred vision: less than 0.1%
PDE5 versus PDE6
  selectivity for PDE5 versus PDE6: much more selective than sildenafil and vardenafil
